Assay in all cases: Kinase panel study
Common to all, as to format: biochemical
Common to all, as to conditions: read-out: Percentage of inhibition; for inhibition at 1 µM: 1000nM; for inhibition at 10 µM: 10000nM

Assay [1] has as its target T1, TEK (Tie2) (Homo sapiens, UniProt Q02763).
T1 construct: purchased Thermo Fisher Scientific
An outline of the steps:
(§1)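 Percent inhibition of each kinase by the test compound, given at either 1 µM or 10 µM, came from a contracted panel run by ZLyte or Adapta protocol.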

For assay [2], the target named is T2, ABL1 T315I (Homo sapiens, UniProt P00519, T315I).
T2 construct: purchased Thermo Fisher Scientific
An outline of the steps: as §1

Assay [3] has as its target T3, FGFR3 (Homo sapiens, UniProt P22607).
T3 construct: purchased Thermo Fisher Scientific
An outline of the steps:
as §1

Assay [4] concerns the target T4, ABL1 G250E (Homo sapiens, UniProt P00519, G250E).
T4 construct: purchased Thermo Fisher Scientific
An outline of the steps: as §1

In assay [5] the target is T5, ABL1 Y253F (Homo sapiens, UniProt P00519, Y253F).
T5 construct: purchased Thermo Fisher Scientific
The method in brief: as §1

Assay [6] concerns the target T6, IKBKE (IKK epsilon) (Homo sapiens, UniProt Q14164).
T6 construct: purchased Thermo Fisher Scientific
T6 sequence (Q14164 1-716): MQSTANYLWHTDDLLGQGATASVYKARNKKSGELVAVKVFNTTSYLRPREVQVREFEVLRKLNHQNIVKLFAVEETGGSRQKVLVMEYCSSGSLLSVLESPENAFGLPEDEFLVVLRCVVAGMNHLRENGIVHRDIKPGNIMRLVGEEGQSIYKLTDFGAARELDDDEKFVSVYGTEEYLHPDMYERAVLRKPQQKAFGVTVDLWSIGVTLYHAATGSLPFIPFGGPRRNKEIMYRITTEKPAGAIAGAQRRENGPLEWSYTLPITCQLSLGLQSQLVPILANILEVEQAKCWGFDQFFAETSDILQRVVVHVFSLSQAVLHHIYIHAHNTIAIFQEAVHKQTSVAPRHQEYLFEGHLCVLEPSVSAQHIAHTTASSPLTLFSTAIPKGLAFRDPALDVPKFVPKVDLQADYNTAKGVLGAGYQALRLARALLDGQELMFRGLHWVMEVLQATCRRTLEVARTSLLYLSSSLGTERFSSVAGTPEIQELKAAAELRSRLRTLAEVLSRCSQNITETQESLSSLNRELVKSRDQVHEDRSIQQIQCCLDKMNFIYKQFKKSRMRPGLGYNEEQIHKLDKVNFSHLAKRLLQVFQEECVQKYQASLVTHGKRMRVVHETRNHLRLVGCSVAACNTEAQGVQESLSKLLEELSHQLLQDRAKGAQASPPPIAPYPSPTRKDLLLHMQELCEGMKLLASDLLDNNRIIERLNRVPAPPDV
An outline of the steps:
as §1

For assay [7], the target named is T7, PRKCA (PKC alpha) (Homo sapiens, UniProt P17252).
T7 construct: purchased Thermo Fisher Scientific
An outline of the steps: as §1

Assay [8] concerns the target T8, ABL1 F317I (Homo sapiens, UniProt P00519, F317I).
T8 construct: purchased Thermo Fisher Scientific
The method in brief:
as §1

Assay [9] deals with T9, AMPK (A1/B2/G2) (Homo sapiens, UniProt Q13131).
T9 construct: purchased Thermo Fisher Scientific
T9 sequence (Q13131 whole entry): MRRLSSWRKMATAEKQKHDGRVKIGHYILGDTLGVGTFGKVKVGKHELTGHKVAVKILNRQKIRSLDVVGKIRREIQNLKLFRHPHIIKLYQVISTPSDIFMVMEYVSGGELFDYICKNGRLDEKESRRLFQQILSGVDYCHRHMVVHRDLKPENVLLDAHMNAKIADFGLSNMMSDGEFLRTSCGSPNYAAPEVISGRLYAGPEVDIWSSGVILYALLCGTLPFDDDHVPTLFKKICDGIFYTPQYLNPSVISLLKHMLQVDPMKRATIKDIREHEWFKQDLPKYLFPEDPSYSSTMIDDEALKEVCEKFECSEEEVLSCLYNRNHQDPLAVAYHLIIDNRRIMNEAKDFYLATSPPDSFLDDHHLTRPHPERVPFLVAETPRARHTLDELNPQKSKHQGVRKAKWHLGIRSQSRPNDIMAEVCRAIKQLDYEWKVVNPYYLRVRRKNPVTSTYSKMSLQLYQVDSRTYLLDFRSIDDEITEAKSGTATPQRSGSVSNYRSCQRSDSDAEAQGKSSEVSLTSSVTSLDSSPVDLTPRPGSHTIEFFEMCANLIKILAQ
T9 sequence (O43741 whole entry partner): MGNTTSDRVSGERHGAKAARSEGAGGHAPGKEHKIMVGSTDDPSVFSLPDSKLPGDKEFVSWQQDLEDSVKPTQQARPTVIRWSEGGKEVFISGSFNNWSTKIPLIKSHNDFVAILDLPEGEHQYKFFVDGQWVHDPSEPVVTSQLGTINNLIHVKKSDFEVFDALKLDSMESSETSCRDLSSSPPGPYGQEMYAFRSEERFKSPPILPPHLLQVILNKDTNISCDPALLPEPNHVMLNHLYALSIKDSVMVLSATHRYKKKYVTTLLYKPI
T9 sequence (Q9UGJ0 whole entry partner): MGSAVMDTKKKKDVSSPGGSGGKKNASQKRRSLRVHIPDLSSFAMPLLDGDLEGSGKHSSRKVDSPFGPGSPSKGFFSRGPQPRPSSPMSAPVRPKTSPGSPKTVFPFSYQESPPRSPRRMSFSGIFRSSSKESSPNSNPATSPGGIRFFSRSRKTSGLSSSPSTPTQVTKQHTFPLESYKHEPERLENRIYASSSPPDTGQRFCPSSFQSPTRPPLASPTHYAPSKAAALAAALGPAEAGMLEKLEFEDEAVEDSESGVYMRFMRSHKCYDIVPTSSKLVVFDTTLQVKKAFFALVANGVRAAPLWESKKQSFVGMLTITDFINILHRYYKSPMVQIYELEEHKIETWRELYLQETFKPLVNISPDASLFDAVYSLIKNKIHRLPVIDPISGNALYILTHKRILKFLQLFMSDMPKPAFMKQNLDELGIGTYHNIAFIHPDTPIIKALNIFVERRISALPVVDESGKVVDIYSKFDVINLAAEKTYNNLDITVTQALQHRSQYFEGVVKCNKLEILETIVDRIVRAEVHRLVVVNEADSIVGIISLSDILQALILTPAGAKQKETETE
An outline of the steps: as §1

SMILES strings stand for the structures.

For orientation: inhibition means the change of the read-out against control, counted positive when it falls.

T1 sequence (Q02763 23-1124): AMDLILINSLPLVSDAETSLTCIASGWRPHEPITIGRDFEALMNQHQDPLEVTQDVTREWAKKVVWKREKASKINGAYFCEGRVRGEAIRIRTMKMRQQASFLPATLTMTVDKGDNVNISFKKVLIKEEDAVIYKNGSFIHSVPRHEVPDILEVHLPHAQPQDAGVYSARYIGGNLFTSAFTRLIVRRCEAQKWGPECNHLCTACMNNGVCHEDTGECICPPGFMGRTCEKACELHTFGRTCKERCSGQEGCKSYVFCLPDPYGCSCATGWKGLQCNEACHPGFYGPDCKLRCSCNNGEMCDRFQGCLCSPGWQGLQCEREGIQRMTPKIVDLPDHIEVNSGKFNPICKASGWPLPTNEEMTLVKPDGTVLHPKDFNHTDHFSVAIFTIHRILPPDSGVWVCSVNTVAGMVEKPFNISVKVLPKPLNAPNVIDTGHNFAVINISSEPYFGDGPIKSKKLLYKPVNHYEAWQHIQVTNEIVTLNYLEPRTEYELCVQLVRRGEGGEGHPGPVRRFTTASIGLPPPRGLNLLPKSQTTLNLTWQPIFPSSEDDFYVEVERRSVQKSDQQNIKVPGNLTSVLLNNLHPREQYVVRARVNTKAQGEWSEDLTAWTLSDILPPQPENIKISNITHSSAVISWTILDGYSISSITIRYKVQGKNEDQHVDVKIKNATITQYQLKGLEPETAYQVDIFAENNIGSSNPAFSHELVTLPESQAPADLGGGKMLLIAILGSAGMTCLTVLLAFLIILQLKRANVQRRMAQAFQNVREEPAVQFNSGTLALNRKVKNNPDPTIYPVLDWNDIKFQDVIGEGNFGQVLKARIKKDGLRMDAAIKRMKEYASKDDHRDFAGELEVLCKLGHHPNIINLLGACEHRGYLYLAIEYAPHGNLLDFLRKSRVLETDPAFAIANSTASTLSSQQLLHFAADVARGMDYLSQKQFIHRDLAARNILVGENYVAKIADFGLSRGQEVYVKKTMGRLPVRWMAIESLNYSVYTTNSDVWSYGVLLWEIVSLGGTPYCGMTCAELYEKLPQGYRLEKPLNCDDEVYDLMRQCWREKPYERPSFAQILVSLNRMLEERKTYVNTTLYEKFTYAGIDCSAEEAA
T3 sequence (P22607 23-806): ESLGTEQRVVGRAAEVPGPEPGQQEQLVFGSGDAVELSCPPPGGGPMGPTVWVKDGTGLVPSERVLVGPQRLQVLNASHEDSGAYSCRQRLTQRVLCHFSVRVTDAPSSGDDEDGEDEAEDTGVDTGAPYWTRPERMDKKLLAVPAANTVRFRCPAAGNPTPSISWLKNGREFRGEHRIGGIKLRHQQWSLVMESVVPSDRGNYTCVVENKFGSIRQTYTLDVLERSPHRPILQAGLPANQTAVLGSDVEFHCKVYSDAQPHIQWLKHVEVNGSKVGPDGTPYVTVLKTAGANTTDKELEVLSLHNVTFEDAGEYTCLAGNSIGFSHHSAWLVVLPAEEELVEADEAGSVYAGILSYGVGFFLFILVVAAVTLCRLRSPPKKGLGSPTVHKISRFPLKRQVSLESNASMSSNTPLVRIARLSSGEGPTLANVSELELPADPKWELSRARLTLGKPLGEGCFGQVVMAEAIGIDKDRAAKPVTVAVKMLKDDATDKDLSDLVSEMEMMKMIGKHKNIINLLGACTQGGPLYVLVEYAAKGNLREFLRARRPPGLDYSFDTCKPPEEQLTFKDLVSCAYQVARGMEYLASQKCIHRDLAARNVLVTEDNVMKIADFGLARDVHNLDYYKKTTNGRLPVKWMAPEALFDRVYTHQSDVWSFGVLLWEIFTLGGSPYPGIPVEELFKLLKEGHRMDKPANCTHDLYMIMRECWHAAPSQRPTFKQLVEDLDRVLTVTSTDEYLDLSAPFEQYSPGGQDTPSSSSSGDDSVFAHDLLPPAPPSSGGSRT

For the compound `COc1ccc2c(c1OC)c(=O)n1c3ccc(O)cc3c3ccnc2c31` [MW01, 5-Hydroxy-10,11-dimethoxy-9H-benzo[c]indolo[3,2,1-ij][1,5]naphthyridin-9-one], the inhibition at 1 µM in assay [1] worked out at 19%; in assay [2] it was 9%; in [3] it was 4%; in [4], 9%; in assay [5], 9%; in [6] it was 11%. In addition, the inhibition at 1 µM was 11% in assay [7], 8% in assay [8] and -6% in assay [9]. The inhibition at 10 µM turned out to be 5% in [1]; 34% in [2]; 8% in [3]; 32% in assay [4]; 30% in assay [5]; 17% in assay [6]. Moreover, the inhibition at 10 µM in [7] amounted to 18%; in assay [8] it was 19%; in assay [9], 5%.

Turning to `COc1ccc2cc3c(N)nn(C(=O)c4cccc(N(C)C)c4)c3nc2c1` [MW05, (3-Amino-7-methoxypyrazolo[3,4-b]quinolin-1-yl)-[3-(dimethylamino)phenyl]methanone], the inhibition at 1 µM in [1] is -2%; in [2] it was 8%; in assay [3], 1%; in assay [4], 12%; in assay [5] it was -2%; in assay [6], 8%. Also, the figures for the inhibition at 1 µM in assay [7], in assay [8] and in assay [9] were 4%, 6% and -10%, respectively. The inhibition at 10 µM in [1] was 12%; in [2] it was 5%; in assay [3], -8%; in [4], 0%; in [5] it was 7%; in assay [6], 6%. Moreover, the inhibition at 10 µM in [7] is -1%; in assay [8] it was -1%; in assay [9] it was 4%.

These data come from EP4467141A1, “PYRAZOLO-QUINOLINES AS SELECTIVE INHIBITORS OF GENOTOXIC STRESS-INDUCED IKK/NF- KB PATHWAYS FOR CANCER THERAPY” (Max-Delbrück-Centrum für Molekulare Medizin in der …, priority 2023, dated 2024).
